From BindingDB's records for patent US11919896 (Zhuhai United Laboratories Co., 2024)

Key:
Test in all cases: In Vitro Test of Activities of Jak1, Jak2, Jak3, Tyk2 Kinases
[1] = molecular target: Non-receptor tyrosine-protein kinase TYK2 (Homo sapiens, UniProt P29597)
Protocol: (§1) All the compounds were prepared into 100% DMSO solution and the concentration reached final measured concentration of 50 times. The test compound was diluted by a 3-fold concentration gradient, and the final concentration was 9 concentrations from 10 μM to 0.001 μM. The content of DMSO in the detect reaction was 2%. The stock solution of this compound was added into wells as a first component, then the other components were added as the following detailed process. […] Mixture of Mg/ATP was added to start reaction, which was stopped by adding 0.5% phosphoric acid after 40 minutes incubation.

[2] = molecular target: Tyrosine-protein kinase JAK1 (Homo sapiens, UniProt P23458)
Protocol: All the compounds were prepared into 100% DMSO solution and the concentration reached final measured concentration of 50 times. The test compound was diluted by a 3-fold concentration gradient, and the final concentration was 9 concentrations from 10 μM to 0.001 μM. The content of DMSO in the detect reaction was 2%. […] Mixture of Mg/ATP was added to start reaction, which was stopped by adding 0.5% phosphoric acid after 40 minutes incubation at room temperature.

[3] = molecular target: Tyrosine-protein kinase JAK2 (Homo sapiens, UniProt O60674)
Protocol: as §1

[4] = molecular target: T1, Tyrosine-protein kinase JAK3 (Homo sapiens, UniProt P52333)
T1 sequence (P52333 whole entry): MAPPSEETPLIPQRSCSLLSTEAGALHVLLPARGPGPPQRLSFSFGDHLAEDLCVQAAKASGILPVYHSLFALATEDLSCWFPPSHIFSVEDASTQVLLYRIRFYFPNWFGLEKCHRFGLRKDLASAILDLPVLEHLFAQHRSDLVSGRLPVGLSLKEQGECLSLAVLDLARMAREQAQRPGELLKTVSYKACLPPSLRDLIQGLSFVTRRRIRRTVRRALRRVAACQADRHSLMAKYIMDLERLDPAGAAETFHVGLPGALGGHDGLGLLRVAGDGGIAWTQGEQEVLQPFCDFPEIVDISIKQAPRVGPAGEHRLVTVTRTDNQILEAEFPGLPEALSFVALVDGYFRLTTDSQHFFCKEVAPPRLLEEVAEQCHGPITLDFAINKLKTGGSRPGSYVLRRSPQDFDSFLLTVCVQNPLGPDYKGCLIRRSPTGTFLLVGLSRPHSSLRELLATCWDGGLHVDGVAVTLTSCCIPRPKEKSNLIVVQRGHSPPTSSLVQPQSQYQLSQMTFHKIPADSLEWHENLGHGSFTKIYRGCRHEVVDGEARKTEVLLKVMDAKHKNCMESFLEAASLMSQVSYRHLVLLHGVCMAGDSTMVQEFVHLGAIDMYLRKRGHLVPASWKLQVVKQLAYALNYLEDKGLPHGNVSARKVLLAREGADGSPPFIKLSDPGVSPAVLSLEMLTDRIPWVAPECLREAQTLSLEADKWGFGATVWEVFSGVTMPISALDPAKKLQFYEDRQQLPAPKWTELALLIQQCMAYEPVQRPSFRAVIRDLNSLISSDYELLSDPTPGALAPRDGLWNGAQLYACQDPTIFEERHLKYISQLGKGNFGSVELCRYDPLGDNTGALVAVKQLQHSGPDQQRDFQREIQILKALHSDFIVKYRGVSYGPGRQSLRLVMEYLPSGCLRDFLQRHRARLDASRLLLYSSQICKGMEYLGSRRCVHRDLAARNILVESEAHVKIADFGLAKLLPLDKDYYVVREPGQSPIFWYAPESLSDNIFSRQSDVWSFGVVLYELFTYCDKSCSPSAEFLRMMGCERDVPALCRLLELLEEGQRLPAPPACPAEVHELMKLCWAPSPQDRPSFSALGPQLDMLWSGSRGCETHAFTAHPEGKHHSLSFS
Protocol: as §1

Sequence of Non-receptor tyrosine-protein kinase TYK2 (P29597 whole entry): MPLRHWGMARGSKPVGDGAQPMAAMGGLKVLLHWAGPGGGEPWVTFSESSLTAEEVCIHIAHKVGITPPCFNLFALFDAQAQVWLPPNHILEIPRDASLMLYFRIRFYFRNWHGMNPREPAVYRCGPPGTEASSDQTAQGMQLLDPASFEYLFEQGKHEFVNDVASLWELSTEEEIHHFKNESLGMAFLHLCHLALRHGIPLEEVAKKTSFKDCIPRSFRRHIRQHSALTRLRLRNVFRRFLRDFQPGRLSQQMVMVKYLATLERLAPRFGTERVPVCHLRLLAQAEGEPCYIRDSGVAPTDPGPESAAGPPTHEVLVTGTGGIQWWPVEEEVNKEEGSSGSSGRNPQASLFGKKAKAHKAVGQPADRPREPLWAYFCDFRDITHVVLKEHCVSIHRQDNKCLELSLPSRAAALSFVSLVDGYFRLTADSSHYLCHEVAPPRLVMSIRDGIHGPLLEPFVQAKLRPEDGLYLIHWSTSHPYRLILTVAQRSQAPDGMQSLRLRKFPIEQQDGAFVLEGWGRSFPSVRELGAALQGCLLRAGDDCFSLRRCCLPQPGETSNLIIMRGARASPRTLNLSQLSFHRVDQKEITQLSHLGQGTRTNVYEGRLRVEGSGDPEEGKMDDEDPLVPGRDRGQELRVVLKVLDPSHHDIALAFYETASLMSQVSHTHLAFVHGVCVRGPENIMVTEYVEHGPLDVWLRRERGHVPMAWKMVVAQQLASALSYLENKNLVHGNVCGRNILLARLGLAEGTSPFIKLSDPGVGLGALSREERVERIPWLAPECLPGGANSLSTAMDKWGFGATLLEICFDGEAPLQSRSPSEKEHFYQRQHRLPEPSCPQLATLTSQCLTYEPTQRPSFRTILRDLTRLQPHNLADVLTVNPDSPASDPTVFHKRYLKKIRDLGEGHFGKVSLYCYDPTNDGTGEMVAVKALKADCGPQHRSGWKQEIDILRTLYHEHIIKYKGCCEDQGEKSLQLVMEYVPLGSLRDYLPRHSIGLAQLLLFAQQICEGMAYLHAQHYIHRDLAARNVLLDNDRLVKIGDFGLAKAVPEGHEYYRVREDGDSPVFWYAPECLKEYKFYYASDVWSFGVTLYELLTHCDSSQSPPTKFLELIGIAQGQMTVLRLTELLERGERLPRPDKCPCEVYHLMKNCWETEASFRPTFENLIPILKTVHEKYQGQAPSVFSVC
Sequence of Tyrosine-protein kinase JAK2 (O60674 whole entry): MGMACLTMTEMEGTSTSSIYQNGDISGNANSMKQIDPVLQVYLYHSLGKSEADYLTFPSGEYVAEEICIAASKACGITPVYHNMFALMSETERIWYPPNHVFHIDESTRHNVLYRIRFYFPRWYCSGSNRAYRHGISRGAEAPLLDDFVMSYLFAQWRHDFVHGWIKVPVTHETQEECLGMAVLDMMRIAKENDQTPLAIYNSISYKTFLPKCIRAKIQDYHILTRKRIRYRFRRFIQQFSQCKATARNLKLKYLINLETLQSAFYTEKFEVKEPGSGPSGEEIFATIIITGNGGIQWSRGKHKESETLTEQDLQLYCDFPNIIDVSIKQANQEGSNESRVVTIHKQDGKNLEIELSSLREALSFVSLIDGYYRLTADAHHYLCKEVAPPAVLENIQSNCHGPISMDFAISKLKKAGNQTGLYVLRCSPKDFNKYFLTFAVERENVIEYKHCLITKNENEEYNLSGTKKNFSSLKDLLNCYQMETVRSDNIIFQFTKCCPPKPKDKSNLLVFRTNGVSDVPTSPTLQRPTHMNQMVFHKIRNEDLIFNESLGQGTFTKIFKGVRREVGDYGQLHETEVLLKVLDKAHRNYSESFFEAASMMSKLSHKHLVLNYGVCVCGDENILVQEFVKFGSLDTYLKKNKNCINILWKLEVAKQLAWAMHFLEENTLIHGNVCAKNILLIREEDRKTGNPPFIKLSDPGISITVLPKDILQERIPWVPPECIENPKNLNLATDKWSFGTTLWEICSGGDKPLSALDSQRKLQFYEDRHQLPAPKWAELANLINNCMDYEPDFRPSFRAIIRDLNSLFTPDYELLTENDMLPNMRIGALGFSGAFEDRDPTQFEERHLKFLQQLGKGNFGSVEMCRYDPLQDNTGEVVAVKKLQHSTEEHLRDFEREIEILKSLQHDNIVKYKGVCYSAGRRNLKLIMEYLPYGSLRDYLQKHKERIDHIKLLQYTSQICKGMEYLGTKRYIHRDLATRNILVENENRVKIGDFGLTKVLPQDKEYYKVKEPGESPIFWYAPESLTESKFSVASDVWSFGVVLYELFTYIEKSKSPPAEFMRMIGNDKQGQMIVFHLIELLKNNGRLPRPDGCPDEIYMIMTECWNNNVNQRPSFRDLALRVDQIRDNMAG
Sequence of Tyrosine-protein kinase JAK1 (P23458 whole entry): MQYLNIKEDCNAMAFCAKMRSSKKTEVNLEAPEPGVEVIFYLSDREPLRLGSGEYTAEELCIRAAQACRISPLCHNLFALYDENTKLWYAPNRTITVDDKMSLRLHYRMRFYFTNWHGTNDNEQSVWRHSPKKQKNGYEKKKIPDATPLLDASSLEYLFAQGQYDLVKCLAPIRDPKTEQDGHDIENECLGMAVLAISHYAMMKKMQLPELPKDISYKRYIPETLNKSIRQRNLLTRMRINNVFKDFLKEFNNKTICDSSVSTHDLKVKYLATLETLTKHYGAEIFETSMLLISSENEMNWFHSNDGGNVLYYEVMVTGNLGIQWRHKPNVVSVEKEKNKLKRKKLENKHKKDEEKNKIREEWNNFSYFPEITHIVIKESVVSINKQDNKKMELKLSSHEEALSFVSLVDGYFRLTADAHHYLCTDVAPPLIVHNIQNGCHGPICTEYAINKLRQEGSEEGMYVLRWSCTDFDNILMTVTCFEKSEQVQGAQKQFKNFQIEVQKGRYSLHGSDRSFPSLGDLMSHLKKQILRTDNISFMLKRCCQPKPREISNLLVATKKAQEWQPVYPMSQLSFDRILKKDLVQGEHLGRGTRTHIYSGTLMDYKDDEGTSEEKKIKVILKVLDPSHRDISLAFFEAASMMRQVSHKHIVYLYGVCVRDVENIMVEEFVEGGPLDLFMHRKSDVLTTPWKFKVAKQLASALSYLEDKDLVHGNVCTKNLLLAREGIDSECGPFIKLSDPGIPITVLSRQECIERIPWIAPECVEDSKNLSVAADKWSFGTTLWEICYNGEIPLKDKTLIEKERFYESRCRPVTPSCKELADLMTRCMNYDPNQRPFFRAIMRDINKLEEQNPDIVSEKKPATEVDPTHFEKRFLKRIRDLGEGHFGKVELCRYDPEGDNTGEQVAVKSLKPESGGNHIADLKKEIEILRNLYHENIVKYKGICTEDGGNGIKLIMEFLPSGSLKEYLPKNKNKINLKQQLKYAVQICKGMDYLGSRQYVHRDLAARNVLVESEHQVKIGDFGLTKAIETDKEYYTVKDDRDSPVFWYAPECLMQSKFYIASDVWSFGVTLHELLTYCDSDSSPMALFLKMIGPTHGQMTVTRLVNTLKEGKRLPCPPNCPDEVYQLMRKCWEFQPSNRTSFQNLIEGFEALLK

O=C(Nc1nc2cccc(C3(F)CCC4(CC3)CN(C(=O)CC(F)(F)F)C4)n2n1)C1CC1 [US11919896, Compound 4-7]
IC50 [1]: 194 nM | IC50 [2]: 436 nM | IC50 [3]: 7690 nM | IC50 [4]: > 10000 nM

N#CCC(=O)N1CC2(CCC(c3cccc4nc(NC(=O)[C@H]5CC5(F)F)nn34)CC2)C1 [US11919896, Compound 8-8]
IC50 [1]: 109 nM | IC50 [2]: 60 nM | IC50 [3]: 1380 nM | IC50 [4]: > 10000 nM

O=C(Nc1nc2cccc(C3(F)CCC4(CC3)CN(C(=O)CC(F)F)C4)n2n1)C1CC1 [US11919896, Compound 4-8]
IC50 [1]: > 10000 nM | IC50 [2]: 244 nM | IC50 [3]: 3710 nM | IC50 [4]: 364 nM

O=C(Nc1nc2cccc(C3CCC4(CC3)CN(C(=O)C3(F)CC3)C4)n2n1)[C@@H]1CC1(F)F [US11919896, Compound 9-4]
IC50 [1]: 1190 nM | IC50 [2]: 253 nM | IC50 [3]: 982 nM | IC50 [4]: > 10000 nM

N#CCC(=O)N1CC2(CCC(c3cccc4nc(NC(=O)C5CC5(F)F)nn34)CC2)C1 (stereo not drawn) [US11919896, Compound 9-5]
IC50 [1]: 175 nM | IC50 [2]: 224 nM | IC50 [3]: 624 nM

O=C(Nc1nc2cccc(C3CCC4(CC3)CN(C(=O)C3(F)CC3)C4)n2n1)[C@H]1CC1(F)F [US11919896, Compound 8-7]
IC50 [1]: 1030 nM | IC50 [2]: 63 nM | IC50 [3]: 5460 nM | IC50 [4]: > 10000 nM
